Results on 46 compounds are retold here after PMC6172212, “Structural Analysis of Inhibitor Binding to CAMKK1 Identifies Features Necessary for Design of Specific Inhibitors” (Scientific Reports, 2018).

Where a name gives a salt, the structure may show the parent alone.

The target of one test is T1, CAMKK1 kinase domain (CAMKK1-KD, Gln124-Lys411) (Homo sapiens, UniProt Q8N5S9).
T1 construct: The kinase domain (Gln124 to Lys411) was amplified using the primers; 6xHis (TEV-cleavable) (N, cleaved yes); made in house; host or cells: Escherichia coli BL21(DE3)-R3 co-expressing λ-phosphatase
T1 sequence (Q8N5S9 124-411): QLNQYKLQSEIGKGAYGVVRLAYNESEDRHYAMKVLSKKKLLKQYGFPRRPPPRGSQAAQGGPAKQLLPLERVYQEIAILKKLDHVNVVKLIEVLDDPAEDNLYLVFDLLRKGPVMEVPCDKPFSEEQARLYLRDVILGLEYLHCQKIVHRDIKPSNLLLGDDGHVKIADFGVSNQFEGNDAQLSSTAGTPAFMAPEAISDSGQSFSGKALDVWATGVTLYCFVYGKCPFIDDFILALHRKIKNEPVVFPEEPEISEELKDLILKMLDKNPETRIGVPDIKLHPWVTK
Briefly: Differential scanning fluorimetry (DSF) screen of a kinase inhibitor library against CAMKK1-KD. The format is binding. As to conditions: DSF, 1 μM CAMKK1-KD, compound 10 µM; mean and standard error from triplicate measurements; read-out: ΔTm (°C) CAMKK1. How it is done:
DSF measurements were made in a 384-well plate.
The compounds, previously solubilized in DMSO, were used at 10 µM final concentration and 0.1% DMSO. Plates were sealed using optically clear films and transferred to a QuantStudio 6 qPCR instrument (Applied Biosystems). […] Protein in 0.1% DMSO was used as a reference.
As for `C1=C/COCc2cc(ccc2OCCN2CCCC2)Nc2nccc(n2)-c2cccc(c2)COC/1` [Pacritinib (SB1518), Pacritinib], the ΔTm at 10 µM was determined as 5.7 ± 1.2 °C.

Regarding `COc1cc2nccc(Oc3ccc(NC(=O)Nc4cc(C)on4)c(Cl)c3)c2cc1OC` [Tivozanib (AV-951), Tivozanib], the ΔTm at 10 µM worked out at 2.6 ± 3.1 °C. On to `CC[C@@H]1C(=O)N(C)c2cnc(Nc3ccc(C(=O)N[C@H]4CC[C@H](N5CCN(CC6CC6)CC5)CC4)cc3OC)nc2N1C(C)C` [Volasertib (BI 6727), Volasertib], for which the ΔTm at 10 µM turned out to be 7.7 ± 0.8 °C.

Staying with this test, now noted: DSF, 1 μM CAMKK1-KD, compound 10 µM; supplement.
In the case of `CN(C)CCCn1cc(C2=C(c3c[nH]c4ccccc34)C(=O)NC2=O)c2ccccc21` [GF109203X], the “Mean ΔTm (°C)” value was found to be 2.4 °C. With `O=C1Nc2ccc(I)cc2/C1=C/c1cc(Br)c(O)c(Br)c1` [GW5074], the “Mean ΔTm (°C)” value was 5.4 °C. Regarding `COc1cc2nccc(Oc3ccc(NC(=O)Nc4ccc(F)cc4F)c(F)c3)c2cc1OC` [Ki8751], the “Mean ΔTm (°C)” value is 2.1 °C. On to `COc1ccccc1-c1cc(Nc2cccc(CS(N)(=O)=O)c2)ncn1` [LDC000067], for which the “Mean ΔTm (°C)” value was 4.2 °C.

Take `O=C(c1cccc(Cl)c1F)N1CCN(Cc2cccc(Nc3nccs3)n2)CC1` [MK-8745]: the “Mean ΔTm (°C)” value came out at 2.0 °C. For `CN(c1ncccc1CNc1nc(Nc2ccc3c(c2)CC(=O)N3)ncc1C(F)(F)F)S(C)(=O)=O` [PF-00562271], the “Mean ΔTm (°C)” value is 5.2 °C.

For `CN(c1ncccc1CNc1nc(Nc2ccc3c(c2)CC(=O)N3)ncc1C(F)(F)F)S(C)(=O)=O` [PF-562271], the “Mean ΔTm (°C)” value is 5.6 °C. As for `CS(=O)(=O)c1cccc(CNc2nc(Nc3ccc4c(c3)CCC(=O)N4)ncc2C(F)(F)F)c1` [PF-573228], the “Mean ΔTm (°C)” value amounted to 5.8 °C. With `O=C1NCCc2[nH]c(-c3ccncc3)cc21` [PHA-767491], the “Mean ΔTm (°C)” value turned out to be 3.0 °C. Consider `NC(=O)c1cnc(N[C@@H]2CCCC[C@@H]2N)nc1Nc1cccc(-n2nccn2)c1` [PRT062607 (P505-15)], for which the “Mean ΔTm (°C)” value was 4.1 °C. Consider `O=C(NCc1cccc(O)c1)Nc1nc(-c2ccncc2)cs1` [RKI-1447], for which the “Mean ΔTm (°C)” value turned out to be 5.6 °C. Turning to `COc1cc(C(=O)NC2CCN(C)CC2)ccc1Nc1ncc2c(n1)N(C1CCCC1)CC(F)(F)C(=O)N2C` [Ro3280], the “Mean ΔTm (°C)” value was found to be 4.8 °C.

For `CS(=O)(=O)O.Cn1cc(C2=C(c3cn(CCCSC(=N)N)c4ccccc34)C(=O)NC2=O)c2ccccc21` [Ro 31-8220 Mesylate], the “Mean ΔTm (°C)” value is 3.4 °C.

As for `O=C1NC(=O)C(c2ccccc2[N+](=O)[O-])=C1Nc1ccc(O)c(Cl)c1` [SB415286], the “Mean ΔTm (°C)” value worked out at 2.7 °C. For `CN1CCC(CNc2ccc3ncc(-c4cccc(OC(F)(F)F)c4)n3n2)CC1` [SGI-1776 free base], the “Mean ΔTm (°C)” value came out at 3.4 °C. The same measure, in the same setting: to `CNC(=O)c1ccccc1Nc1nc(Nc2ccc(N3CCOCC3)cc2OC)ncc1Cl` [TAE226 (NVP-TAE226)] belongs 3.0 °C. Take `Cc1cnc(Nc2ccc(N3CCN(C)CC3)cc2)nc1Nc1cccc(S(=O)(=O)NC(C)(C)C)c1` [TG101209]: the “Mean ΔTm (°C)” value was 3.6 °C.

On to `O=C(NCc1ccccc1)c1csc(Nc2ccncn2)n1` [Thiazovivin], for which the “Mean ΔTm (°C)” value came out at 3.0 °C.

For the compound `C=CC(=O)Nc1cccc(Oc2nc(Nc3ccc(N4CCN(C)CC4)cc3)ncc2Cl)c1` [WZ3146], the “Mean ΔTm (°C)” value stood at 3.1 °C.

For the compound `C=CC(=O)Nc1cccc(Sc2nc(Nc3ccc(N4CCN(C)CC4)cc3)ncc2Cl)c1` [WZ8040], the “Mean ΔTm (°C)” value was found to be 4.1 °C. With `COc1cc2c(Nc3ccc(NC(=O)c4ccccc4)cc3)ncnc2cc1OCCCN1CCOCC1` [ZM 447439], the “Mean ΔTm (°C)” value stood at 2.0 °C. As to AZD4547, the “Mean ΔTm (°C)” value was 5.9 °C.

The same test, now with this note: DSF, 1 μM CAMKK1-KD, compound 10 µM; supplement; read-out: Mean ΔTm (°C).
With `Cc1cc(Nc2cc(N3CCN(C)CC3)nc(/C=C/c3ccccc3)n2)n[nH]1` [ENMD-2076], the ΔTm at 10 µM turned out to be 2.6 °C.

For `CN1CCN(C2CCN(C(=O)Nc3cc(Oc4ccc(NC(=O)C5(C(=O)Nc6ccc(F)cc6)CC5)c(F)c4)ccn3)CC2)CC1` [Golvatinib (E7050), Golvatinib], the ΔTm at 10 µM came to 5.5 °C. With `Nc1nc(Nc2ccc(S(N)(=O)=O)cc2)nn1C(=O)c1c(F)cccc1F` [JNJ-7706621], the ΔTm at 10 µM is 3.6 °C. For `Cc1cc(Nc2ncc(Cl)c(Nc3ccccc3S(=O)(=O)C(C)C)n2)c(OC(C)C)cc1C1CCNCC1` [LDK378], the ΔTm at 10 µM amounted to 3.9 °C.

For `Cc1cc(Nc2cc(CN3CCOCC3)c3nc(C)c(Cc4ccc(Cl)cc4F)n3n2)n[nH]1` [LY2784544], the ΔTm at 10 µM worked out at 4.6 °C.

`CCN1CCN(Cc2ccc(Nc3ncc(F)c(-c4cc(F)c5nc(C)n(C(C)C)c5c4)n3)nc2)CC1` [LY2835219]: the thermal shift (ΔTm) at 10 µM was 6.7 °C.

For `CNC(=O)c1nn(C)c2c1C(C)(C)Cc1cnc(Nc3ccc(N4CCN(C)CC4)cc3)nc1-2` [Milciclib (PHA-848125), Milciclib], the ΔTm at 10 µM came to 4.1 °C. For the compound `Cc1nc(Nc2[nH]nc3c2CN(C(=O)N[C@H](CN(C)C)c2ccccc2)C3(C)C)c2sccc2n1` [PF-3758309], the ΔTm at 10 µM worked out at 4.6 °C.

Consider `Cc1[nH]c(/C=C2\C(=O)Nc3ccc(S(=O)(=O)Cc4c(Cl)cccc4Cl)cc32)c(C)c1C(=O)N1CCC[C@@H]1CN1CCCC1` [PHA-665752], for which the ΔTm at 10 µM was 5.2 °C.

`CC(C)CC(=O)Nc1[nH]nc2c1CN(C(=O)C1CCN(C)CC1)C2(C)C` [PHA-793887]: the ΔTm at 10 µM was 3 °C. On to `CCOc1cc2ncc(C#N)c(Nc3ccc(F)c(Cl)c3)c2cc1NC(=O)/C=C/CN(C)C` [Pelitinib (EKB-569), Pelitinib], for which the thermal shift (ΔTm) at 10 µM came to 3.2 °C. As for `O=c1c(O)c(-c2ccc(O)c(O)c2)oc2cc(O)cc(O)c12` [Quercetin], the ΔTm at 10 µM was determined as 4.9 °C. With `CCS(=O)(=O)c1cccc(-c2cc(C(=O)NC3CCN(C)CC3)c(C)c3[nH]c4ncc(C)cc4c23)c1` [TAK-901], the ΔTm at 10 µM came to 5 °C. As for `Cc1cnc(Nc2ccc(OCCN3CCCC3)cc2)nc1Nc1cccc(S(=O)(=O)NC(C)(C)C)c1` [TG101348 (SAR302503)], the ΔTm at 10 µM is 3.4 °C. As to `Cc1[nH]c(/C=C2\C(=O)Nc3ccccc32)c(C)c1CCC(=O)O` [TSU-68 (SU6668)], the ΔTm at 10 µM is 4.9 °C. As for `COc1cc2c(N3CCN(C(=O)Nc4ccc(OC(C)C)cc4)CC3)ncnc2cc1OCCCN1CCCCC1` [Tandutinib (MLN518), Tandutinib], the ΔTm at 10 µM was found to be 2.3 °C. With `COc1ccc(Cl)c(Nc2nc3ccccc3nc2NS(=O)(=O)c2cccc(NC(=O)C(C)(C)N)c2)c1` [XL147], the ΔTm at 10 µM is 4.1 °C.

Still in this test, the particulars now being: read-out: Mean ΔTm (°C).
On to `CC(=O)c1c(C)c2cnc(Nc3ccc(N4CCNCC4)cn3)nc2n(C2CCCC2)c1=O` [Palbociclib (PD-0332991) HCl, Palbociclib], for which the ΔTm at 10 µM turned out to be 4.4 °C.

Take `O=C(Nc1cccc(Cl)c1)Nc1ncc(CCNc2ncnc3ccsc23)s1` [SNS-314 Mesylate]: the ΔTm at 10 µM is 4.5 °C.

Staying with this test, now noted: read-out: ΔTm (°C) CAMKK1.
In the case of `Cc1ccc(C(=O)Nc2ccc(CN3CCN(C)CC3)c(C(F)(F)F)c2)cc1C#Cc1cnc2cccnn12` [Ponatinib (AP24534), Ponatinib], the ΔTm at 10 µM is 4.4 ± 3.1 °C.

As for `CN[C@@H]1C[C@H]2O[C@@](C)([C@@H]1OC)n1c3ccccc3c3c4c(c5c6ccccc6n2c5c31)C(=O)NC4` [Staurosporine], the ΔTm at 10 µM was found to be 23.7 ± 1.9 °C.
